ChEMBL document CHEMBL1201862, “PubChem BioAssay data set” (2004)
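A five-concentration, 48-hour dose response in 96-well plates underlies each endpoint, interpolated linearly between surrounding concentrations. The concentration for 50% growth inhibition is given as GI50.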 The source made the active and inactive calls. Rule as the data show it: active = GI50 up to about 1.1 µM and inactive = higher.

Tests used:
Assay in all cases: DTP human tumour cell line panel, 48 h
[1] = tested on: LXFL 529
[2] = tested on: ACHN
[3] = tested on: SW-620
[4] = tested on: OVCAR-5
[5] = tested on: UACC-257
[6] = tested on: KM12
[7] = tested on: SK-MEL-5
[8] = tested on: NCI-H522
[9] = tested on: HOP-18
[10] = tested on: NCI-H226
[11] = tested on: HL-60
[12] = tested on: SF-268
[13] = tested on: DMS-114
[14] = tested on: SK-MEL-28
[15] = tested on: M19-MEL
[16] = tested on: U-251
[17] = tested on: OVCAR-4

Measured: GI50

CN(C)c1ccc2c(c1)C(=O)N(OS(=O)(=O)c1ccc([N+](=O)[O-])cc1)C2=O
inactive: [1] 17.9 µM | [2] 24.7 µM | [3] 20.4 µM | [4] 25.4 µM | [5] 25.6 µM | [6] 25.1 µM | [7] 41.1 µM | [8] 15 µM | [9] > 100 µM | [10] 72.8 µM | [11] 28.6 µM | [12] 27.2 µM | [13] > 10 µM | [14] 26.1 µM | [15] 19 µM | [16] 18.9 µM | [17] 15.7 µM

OCC(O)CNc1ccnc2cc(Cl)ccc12 (stereo not drawn)
inactive: [1] > 100 µM | [2] > 100 µM | [3] > 100 µM | [4] > 100 µM | [5] > 100 µM | [6] > 100 µM | [7] > 100 µM | [8] > 100 µM | [9] > 100 µM | [10] > 100 µM | [11] > 100 µM | [12] > 100 µM | [13] > 100 µM | [14] > 100 µM | [15] > 100 µM | [16] > 100 µM | [17] > 100 µM

COc1cc(C=O)c(-c2c(C=O)ccc3c2OCO3)c(OC)c1OC
inactive: [1] > 100 µM | [2] > 100 µM | [3] 38.2 µM | [4] > 100 µM | [5] > 100 µM | [6] 78.3 µM | [7] > 100 µM | [8] 88.5 µM | [9] > 100 µM | [10] > 100 µM | [11] 26.7 µM | [12] 89.3 µM | [13] > 100 µM | [14] 74.6 µM | [15] 61.4 µM | [16] 70.1 µM | [17] > 100 µM

O=C(NCc1cccnc1)C1COc2cc(-c3cc(=O)c4ccccc4o3)ccc2O1 (stereo not drawn)
inactive: [1] 4.95 µM | [2] 22.5 µM | [3] > 100 µM | [4] > 100 µM | [5] 4.94 µM | [6] > 36.1 µM | [7] 26.1 µM | [8] 10.7 µM | [9] > 79.4 µM | [10] 3.62 µM | [11] > 46.5 µM | [12] 3.89 µM | [13] 14.1 µM | [14] 3.49 µM | [15] 3.93 µM | [16] 5.93 µM | [17] 55.3 µM

CC1(CO)OC(n2cc(C(=O)NC(=O)OCc3ccccc3)c(=O)[nH]c2=O)CC1O (stereo not drawn)
inactive: [1] > 100 µM | [2] > 100 µM | [3] > 100 µM | [5] > 100 µM | [6] > 100 µM | [7] > 100 µM | [8] > 100 µM | [9] > 100 µM | [10] > 100 µM | [11] > 100 µM | [12] > 100 µM | [13] > 100 µM | [14] > 100 µM | [15] > 100 µM | [16] > 100 µM

COc1cc(Nc2cnc3cc(N)ccc3n2)cc(OC)c1OC
inactive: [1] 82.4 µM | [2] > 100 µM | [3] > 100 µM | [4] > 100 µM | [5] > 100 µM | [6] > 100 µM | [7] 69 µM | [8] 57.5 µM | [9] 51.3 µM | [11] 40.1 µM | [12] > 100 µM | [13] 65.8 µM | [14] > 100 µM | [15] 74.8 µM | [16] 65.2 µM | [17] > 100 µM

O=S(=O)(SCCCCSS(=O)(=O)c1ccc(Cl)cc1)c1ccc(Cl)cc1
inactive: [1] 12.2 µM | [2] 16.3 µM | [3] 9.46 µM | [4] 16.7 µM | [5] 16.6 µM | [6] 9.68 µM | [7] 16.7 µM | [8] 5.06 µM | [9] 13.6 µM | [11] 3.24 µM | [12] 10.5 µM | [13] 6.67 µM | [14] 17.8 µM | [15] 14.8 µM | [16] 8.36 µM | [17] 15.1 µM

O=C(c1ccccc1)C(C(=O)c1ccccc1)C1(O)C(=O)c2ccccc2C1=O
inactive: [1] 28.6 µM | [2] 31.9 µM | [3] 38.7 µM | [4] 60.3 µM | [5] 38.4 µM | [6] 51.5 µM | [7] > 10 µM | [8] 14.1 µM | [9] 68.4 µM | [10] 37.1 µM | [11] 16.7 µM | [12] 24.7 µM | [13] > 10 µM | [14] 3.6 µM | [15] 16.6 µM | [16] 21 µM

CCOC(=O)C(/N=N\c1ccc(S(N)(=O)=O)cc1)C(C)=O (stereo not drawn)
inactive: [1] > 100 µM | [2] > 100 µM | [3] > 100 µM | [4] > 100 µM | [5] > 100 µM | [6] > 100 µM | [7] > 100 µM | [8] > 100 µM | [9] > 100 µM | [10] > 100 µM | [11] > 100 µM | [12] > 100 µM | [13] > 100 µM | [14] > 100 µM | [15] > 100 µM | [16] > 100 µM | [17] > 100 µM

Nc1ccc(C(=O)NN2C(=O)C(Cl)C2c2cc(Br)cc(Br)c2O)cc1 (stereo not drawn)
inactive: [1] 20.1 µM | [2] 5.74 µM | [3] 16.7 µM | [4] 40.2 µM | [5] 7.67 µM | [6] 22.8 µM | [7] 16.5 µM | [8] 6.75 µM | [9] 3.56 µM | [10] 5.82 µM | [11] 1.31 µM | [12] 3.98 µM | [13] 4.22 µM | [14] 22.9 µM | [15] 11.9 µM | [16] 11.1 µM | [17] 10.3 µM

COc1ccccc1NC(=O)C1=C(C)NC(C)=C(C(=O)Nc2ccccc2OC)C1c1ccccc1[N+](=O)[O-]
inactive: [1] 11.7 µM | [2] 18.6 µM | [4] 41 µM | [5] 19 µM | [6] 16.8 µM | [7] 24.8 µM | [8] 13.1 µM | [9] 29.7 µM | [10] 15.2 µM | [11] 20.2 µM | [12] 19.8 µM | [13] 15 µM | [14] 17.5 µM | [15] 18.5 µM | [16] 14.5 µM | [17] 18.9 µM

COc1ccc(/C=C/C(=O)c2sc(-n3nc(-c4ccccc4)cc3-c3ccccc3)nc2C)cc1
inactive: [1] > 10 µM | [2] > 10 µM | [3] > 10 µM | [4] > 10 µM | [5] 79.1 µM | [6] 76.4 µM | [7] 52.1 µM | [8] 63.1 µM | [9] > 10 µM | [10] > 10 µM | [11] > 10 µM | [12] > 10 µM | [13] 31.3 µM | [14] > 10 µM | [15] > 10 µM | [16] 62.2 µM | [17] 43.6 µM
